Data as given in PubChem BioAssay (NCI).
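Five compound concentrations were applied to cells in 96-well plates for 48 hours; endpoints were derived by simple linear interpolation of the resulting dose-response curve. TGI: concentration producing complete growth inhibition.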

Assays:
Test in all cases: NCI anticancer screen, dose series, 48 h
OVCAR-8 ovarian = system: OVCAR-8 ovarian
EKVX NSCLC = system: EKVX NSCLC
SN12C renal = system: SN12C renal
DU-145 prostate = system: DU-145 prostate
HOP-92 NSCLC = system: HOP-92 NSCLC
IGROV1 ovarian = system: IGROV1 ovarian
HCT-116 colon = system: HCT-116 colon
HCT-15 colon = system: HCT-15 colon
NCI-H460 lung = system: NCI-H460 lung
UO-31 renal = system: UO-31 renal
NCI-H522 lung = system: NCI-H522 lung
MDA-MB-435 = system: MDA-MB-435
SNB-19 CNS = system: SNB-19 CNS
HCC-2998 colon = system: HCC-2998 colon
SW-620 colon = system: SW-620 colon
MOLT-4 leukemia = system: MOLT-4 leukemia
OVCAR-3 ovarian = system: OVCAR-3 ovarian
TK-10 renal = system: TK-10 renal
SF-295 CNS = system: SF-295 CNS
PC-3 prostate = system: PC-3 prostate
BT-549 breast = system: BT-549 breast
SF-539 CNS = system: SF-539 CNS
T-47D breast = system: T-47D breast
RXF 393 renal = system: RXF 393 renal
A549 NSCLC = system: A549 NSCLC
SK-MEL-5 melanoma = system: SK-MEL-5 melanoma
U251 CNS = system: U251 CNS
LOX IMVI melanoma = system: LOX IMVI melanoma
ACHN renal = system: ACHN renal
OVCAR-4 ovarian = system: OVCAR-4 ovarian
HL-60(TB) leukemia = system: HL-60(TB) leukemia
MALME-3M melanoma = system: MALME-3M melanoma
SK-MEL-2 melanoma = system: SK-MEL-2 melanoma
MDA-MB-231 breast = system: MDA-MB-231 breast
CAKI-1 renal = system: CAKI-1 renal
SK-OV-3 ovarian = system: SK-OV-3 ovarian
NCI-H23 lung = system: NCI-H23 lung
HOP-62 NSCLC = system: HOP-62 NSCLC
M14 melanoma = system: M14 melanoma
SNB-75 CNS = system: SNB-75 CNS
COLO 205 colon = system: COLO 205 colon
MDA-N = system: MDA-N
RPMI-8226 leukemia = system: RPMI-8226 leukemia
UACC-62 melanoma = system: UACC-62 melanoma
HT29 colon = system: HT29 colon
786-0 renal = system: 786-0 renal
K-562 leukemia = system: K-562 leukemia
SF-268 CNS = system: SF-268 CNS
MCF7 breast = system: MCF7 breast
SK-MEL-28 melanoma = system: SK-MEL-28 melanoma
UACC-257 melanoma = system: UACC-257 melanoma
KM12 colon = system: KM12 colon
NCI/ADR-RES ovarian = system: NCI/ADR-RES ovarian
HS 578T breast = system: HS 578T breast
NCI-H226 lung = system: NCI-H226 lung
SR leukemia = system: SR leukemia
CCRF-CEM leukemia = system: CCRF-CEM leukemia
OVCAR-5 ovarian = system: OVCAR-5 ovarian
A498 renal = system: A498 renal

Measured: TGI

CC(C)C1=CC23CCC4C(C)(C(=O)O)CCCC4(C)C2CC1C1C(=O)N(c2ccc(C(=O)O)cc2)C(=O)C13 (configuration not stated)
not listed: SR leukemia | CCRF-CEM leukemia | OVCAR-5 ovarian | A498 renal
> 100 µM: all other assays above

CC1(O)OC(=O)C2=C1CCC1C2CCC2(C)C(O)CCC12 (configuration not stated)
not listed: MOLT-4 leukemia | PC-3 prostate | RXF 393 renal | SK-MEL-2 melanoma | SK-OV-3 ovarian | SNB-75 CNS | COLO 205 colon
> 100 µM: all other assays above
